In EP4265127A1, “WATER-SOLUBLE EMULSION COMPOSITION CONTAINING NATURAL POLYPHENOL COMPOUND” (Yun, Kwan Sik, priority 2020, dated 2022):

Test: Water solubility confirmation (organic material content quantified by Karl Fisher method)
Format: physicochemical
Experimental: According to the composition shown in Tables 38 to 61, the water-soluble antioxidant emulsion was added to the natural polyphenol compound emulsion, and then mixing and dispersing were performed at 500 rpm or less while checking the properties of the emulsion to prepare an natural polyphenol compound-containing water-soluble emulsion composition containing a water-soluble antioxidant emulsion. […] After 1 hour of centrifugation and filtering, an organic material content was quantified by measuring a water content using a Karl Fisher method.
Work on O=c1cc(-c2ccccc2)oc2cc(O)c(O)c(O)c12 [Generic Powdered Baicalein] yielded a Water solubility of 0.00%. COc1cc(/C=C/C(=O)CC(=O)/C=C/c2ccc(O)c(OC)c2)ccc1O [Generic Powdered Curcumin] gave a Water solubility of 0.00%. With O=c1cc(-c2ccc(O)c(O)c2)oc2cc(O)cc(O)c12 [Generic Powdered Luteolin] the Water solubility was 0.02%. With O=C1C[C@@H](c2ccc(O)cc2)Oc2cc(O)cc(O)c21 [Generic Powdered Naringenin] the Water solubility was 0.04%. For Oc1ccc(/C=C/c2cc(O)cc(O)c2)cc1 [Generic Powdered Resveratrol], the Water solubility was 0.00%. For O=c1c(O)c(-c2ccc(O)cc2)oc2cc(O)cc(O)c12 [Generic Powdered kaempferol], the Water solubility was 0.01%. For COc1ccc([C@@H]2CC(=O)c3c(O)cc(O[C@@H]4O[C@H](CO[C@@H]5O[C@@H](C)[C@H](O)[C@@H](O)[C@H]5O)[C@@H](O)[C@H](O)[C@H]4O)cc3O2)cc1O [Generic powdered Hesperidin], the Water solubility was 0.00%. Compound O=c1c(O)c(-c2ccc(O)c(O)c2)oc2cc(O)cc(O)c12 [Generic powdered Quercetin] has a Water solubility of 0.00%.
